Consider six compounds from US20220031668A1, “METHODS OF INHIBITING PROCOLLAGEN-LYSINE, 2-OXOGLUTARATE 5-DIOXYGENASE 2” (University of Kentucky Research Foundation, priority 2020, published 2022).

Each structure is given as a SMILES string.

In the first assay the test system is MDA-MB-231 cells. The experiment in a line: 3D culture assay of cancer cell invasion. The class given is cell-based, human. The note with it: 10 μM. How it is done:
3D culture assay is an established platform to study cancer cell invasion, and the ability of compounds to attenuate such cell invasion (Zhang 2015). […] The MDA-MB-231 cell line is an epithelial, human breast cancer cell line.
Briefly, to conduct the 3D culture assay, 12-well plates were coated with […], matrigel per well. After incubating the plates at 37° C. for 15 minutes, MDA-MB-231 cells were plated with about 300 cells per well. The plates were allowed to stand for 45 min in the 37° C. incubator to let the cells deposit into the matrigel. The cells were then covered with 10% matrigel, which contained test compounds. […]
Regarding `CN(C)C(=O)C(CCN1CCC(O)(c2ccc(Cl)cc2)CC1)(c1ccccc1)c1ccccc1` [Loperamide], the “invasive growth of MDA-MB-231 cells in 3D culture” value is listed as “inhibits invasive growth”.

Staying with this assay, now noted: 20 μM, 3D culture for 3 days.
Regarding `C[N+](C)(C)CC(O)CC(=O)O` (racemic) [DL-Carnitine], the “inhibitory activity on breast cancer progression (invasive growth) in 3D culture” value is given as “inhibitory activity”.
Still for that read-out and setting: as for `N=C(N)NC(=O)c1nc(Cl)c(N)nc1N` [Amiloride], the entry is “inhibitory activity”.
Still for that read-out and setting: as for `CN1CCCC(n2nc(Cc3ccc(Cl)cc3)c3ccccc3c2=O)CC1` (stereo not drawn) [Azelastine], the entry is “inhibitory activity”; as for `O=C(O)c1cc(O)c(O)c(O)c1` [Gallic acid], “inhibitory activity”; as for `C[N+](C)(C)C[C@H](O)CC(=O)[O-]` [L-Carnitine], “inhibitory activity”.
